ChEMBL document CHEMBL4627305, “3,3-Difluoro-3,4,5,6-tetrahydropyridin-2-amines: Potent and permeable BACE-1 inhibitors” (Bioorg Med Chem Lett, 2020)

Key:
[1] = Metabolic stability in human liver microsomes assessed as intrinsic clearance; type: ADME, Microsome; conditions: read-out: CLH
[2] = target: Voltage-gated inwardly rectifying potassium channel KCNH2 (Homo sapiens, UniProt Q12809); assay: Inhibition of human ERG
Cytochrome P450 2D6 = Cytochrome P450 2D6 (Homo sapiens, UniProt P10635); assay: Inhibition of CYP2D6 (unknown origin); type: ADME
[3] = Metabolic stability in dog liver microsomes assessed as intrinsic clearance; type: ADME, Canis lupus familiaris, Microsome; conditions: read-out: CLH
Beta-secretase 2 = target: T1, Beta-secretase 2 (Homo sapiens, UniProt Q9Y5Z0); assay: Inhibition of BACE2 (unknown origin)
T1 sequence (Q9Y5Z0 whole entry): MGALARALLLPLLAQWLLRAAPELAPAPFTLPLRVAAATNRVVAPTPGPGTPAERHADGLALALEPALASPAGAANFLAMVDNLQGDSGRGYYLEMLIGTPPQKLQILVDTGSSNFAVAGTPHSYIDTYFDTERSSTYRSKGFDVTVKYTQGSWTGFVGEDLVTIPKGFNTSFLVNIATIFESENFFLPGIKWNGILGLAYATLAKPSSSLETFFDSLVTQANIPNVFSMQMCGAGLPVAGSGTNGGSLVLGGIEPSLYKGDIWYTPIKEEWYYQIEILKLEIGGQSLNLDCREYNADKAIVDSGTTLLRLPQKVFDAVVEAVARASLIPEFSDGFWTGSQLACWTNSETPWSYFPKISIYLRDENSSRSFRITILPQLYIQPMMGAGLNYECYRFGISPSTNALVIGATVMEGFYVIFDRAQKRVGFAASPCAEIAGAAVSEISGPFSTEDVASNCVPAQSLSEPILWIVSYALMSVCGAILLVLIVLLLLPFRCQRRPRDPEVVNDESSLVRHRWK

[4] = Efflux ratio of apparent permeability across basolateral to apical over apical to basolateral side in MDCK cells; type: ADME, cell-based, Canis lupus familiaris; conditions: dog
Homo sapiens = species on record: Homo sapiens; assay: Selectivity index, ratio of IC50 for BACE2 (unknown origin) to IC50 for BACE1 (unknown origin)
Beta-secretase 1 [5] = target: T2, Beta-secretase 1 (Homo sapiens, UniProt P56817); assay: Inhibition of BACE1 (unknown origin) assessed as reduction in Abeta42 level by cell based assay
[6] = Dissociation constant, pKa of the compound; type: physicochemical
Beta-secretase 1 [7] = target: T2, Beta-secretase 1; assay: Inhibition of BACE1 (unknown origin)

T2 sequence (P56817 whole entry): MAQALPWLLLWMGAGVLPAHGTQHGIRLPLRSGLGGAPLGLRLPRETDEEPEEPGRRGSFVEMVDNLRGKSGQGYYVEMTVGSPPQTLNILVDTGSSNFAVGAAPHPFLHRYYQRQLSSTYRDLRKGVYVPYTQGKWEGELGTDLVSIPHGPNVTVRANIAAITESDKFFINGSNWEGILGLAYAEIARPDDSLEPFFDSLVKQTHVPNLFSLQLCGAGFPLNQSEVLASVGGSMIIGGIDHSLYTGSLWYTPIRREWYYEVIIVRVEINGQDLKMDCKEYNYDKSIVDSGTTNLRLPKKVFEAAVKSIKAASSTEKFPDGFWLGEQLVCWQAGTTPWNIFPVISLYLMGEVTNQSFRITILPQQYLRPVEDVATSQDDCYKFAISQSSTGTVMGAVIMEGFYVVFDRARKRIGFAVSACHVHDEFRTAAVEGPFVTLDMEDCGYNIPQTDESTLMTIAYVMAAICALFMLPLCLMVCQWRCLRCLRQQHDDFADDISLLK
Cytochrome P450 2D6, sequence (P10635 whole entry): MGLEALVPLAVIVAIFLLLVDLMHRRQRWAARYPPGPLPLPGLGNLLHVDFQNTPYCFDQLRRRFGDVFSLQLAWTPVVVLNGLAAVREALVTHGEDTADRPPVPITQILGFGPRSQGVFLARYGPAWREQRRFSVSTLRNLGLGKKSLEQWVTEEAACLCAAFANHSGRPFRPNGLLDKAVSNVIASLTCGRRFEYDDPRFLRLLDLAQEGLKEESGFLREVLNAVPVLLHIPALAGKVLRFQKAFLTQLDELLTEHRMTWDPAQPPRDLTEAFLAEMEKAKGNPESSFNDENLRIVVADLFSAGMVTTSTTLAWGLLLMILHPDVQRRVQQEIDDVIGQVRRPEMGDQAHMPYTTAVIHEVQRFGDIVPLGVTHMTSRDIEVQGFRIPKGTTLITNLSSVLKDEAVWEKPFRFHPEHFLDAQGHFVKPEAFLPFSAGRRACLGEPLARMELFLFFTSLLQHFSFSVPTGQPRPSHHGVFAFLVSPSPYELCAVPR
Voltage-gated inwardly rectifying potassium channel KCNH2, sequence (Q12809 whole entry): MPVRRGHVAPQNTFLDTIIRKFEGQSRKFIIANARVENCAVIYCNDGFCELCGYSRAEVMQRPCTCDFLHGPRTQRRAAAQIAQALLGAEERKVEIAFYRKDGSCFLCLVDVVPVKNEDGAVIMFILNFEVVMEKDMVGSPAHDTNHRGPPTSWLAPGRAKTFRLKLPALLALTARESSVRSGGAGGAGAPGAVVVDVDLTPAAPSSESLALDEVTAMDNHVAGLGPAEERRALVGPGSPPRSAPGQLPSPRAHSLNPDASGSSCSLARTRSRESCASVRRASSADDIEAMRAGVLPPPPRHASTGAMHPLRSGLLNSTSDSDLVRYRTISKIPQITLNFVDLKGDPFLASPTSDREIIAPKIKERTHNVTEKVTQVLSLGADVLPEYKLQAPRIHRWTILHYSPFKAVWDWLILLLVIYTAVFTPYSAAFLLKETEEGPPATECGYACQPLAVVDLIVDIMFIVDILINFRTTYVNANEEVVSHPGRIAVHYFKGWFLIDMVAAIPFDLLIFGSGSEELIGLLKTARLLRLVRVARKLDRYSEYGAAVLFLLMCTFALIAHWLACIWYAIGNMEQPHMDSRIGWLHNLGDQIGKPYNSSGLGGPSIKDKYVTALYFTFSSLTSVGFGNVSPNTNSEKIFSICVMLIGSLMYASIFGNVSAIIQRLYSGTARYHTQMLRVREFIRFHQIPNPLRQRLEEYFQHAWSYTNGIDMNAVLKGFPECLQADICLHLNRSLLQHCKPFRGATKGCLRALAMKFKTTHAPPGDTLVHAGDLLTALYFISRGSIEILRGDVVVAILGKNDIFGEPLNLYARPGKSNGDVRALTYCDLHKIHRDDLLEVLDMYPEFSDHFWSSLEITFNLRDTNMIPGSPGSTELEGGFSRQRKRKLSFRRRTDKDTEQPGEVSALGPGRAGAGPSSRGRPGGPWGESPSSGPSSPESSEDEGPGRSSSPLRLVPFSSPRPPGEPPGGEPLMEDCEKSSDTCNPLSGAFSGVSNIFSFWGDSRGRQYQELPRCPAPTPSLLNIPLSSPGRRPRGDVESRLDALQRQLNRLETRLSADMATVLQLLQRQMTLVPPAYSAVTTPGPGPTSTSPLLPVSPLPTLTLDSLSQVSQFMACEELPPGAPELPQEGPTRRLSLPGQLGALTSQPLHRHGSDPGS

Compound | microsomal CLint [1] | IC50 [2] | IC50 (Cytochrome P450 2D6) | microsomal CLint [3] | IC50 (Beta-secretase 2) | efflux ratio [4] | Ratio IC50 (Homo sapiens) | IC50 (Beta-secretase 1 [5]) | pKa [6] | IC50 (Beta-secretase 1 [7])
NC1=N[C@@]2(c3cc(NC(=O)c4cnc(OCF)cn4)ccc3F)CCOC[C@H]2CC1(F)F (racemic) | 35.3 µL/min/mg | > 10 µM | > 10 µM | 11.8 µL/min/mg | 1070 nM | 8.4 | 13.5 | 170 nM | 6.7 | 79.4 nM
NC1=N[C@@]2(c3cc(NC(=O)c4cnc(OCF)cn4)ccc3F)COCC[C@H]2CC1(F)F (racemic) | 46.2 µL/min/mg | > 10 µM | > 10 µM | 15.5 µL/min/mg | 10.2 nM | 4.7 | 3 | 7.1 nM | 6.6 | 3.5 nM
NC1=N[C@](CF)(c2cc(NC(=O)c3cnc(OCF)cn3)ccc2F)CCC1(F)F | < 7.7 µL/min/mg | – | – | < 7.7 µL/min/mg | 138 nM | – | – | 93.3 nM | 6.3 | 8.9 nM
C[C@@]1(c2cc(NC(=O)c3cnc(OCF)cn3)ccc2F)CCC(F)(F)C(N)=N1 | 10.1 µL/min/mg | > 10 µM | 1 µM | 10.2 µL/min/mg | 126 nM | 2.1 | 11 | 16.2 nM | 7.6 | 11.5 nM
NC1=N[C@@]2(c3cc(NC(=O)c4cnc(OCF)cn4)ccc3F)CO[C@@H](CF)C[C@H]2CC1(F)F | 24.9 µL/min/mg | > 10 µM | > 10 µM | < 7.7 µL/min/mg | 8.9 nM | 12 | 3.6 | 4.8 nM | 6.4 | 2.5 nM
C[C@H]1C[C@H]2CC(F)(F)C(N)=N[C@@]2(c2cc(NC(=O)c3cnc(OCF)cn3)ccc2F)CO1 | 119 µL/min/mg | > 10 µM | > 10 µM | 18.6 µL/min/mg | 6.8 nM | 5 | 4.5 | 3.5 nM | 6.6 | 1.5 nM
